Assay results: PMC7058083, “Structural basis of ligand binding modes at the human formyl peptide receptor 2” (Nature Communications, 2020)
Substitutions are numbered along the chain they refer to. Residues, ends and D or L forms follow the SMILES beside them. *: point of attachment. For = O=C*

What was measured:
Test in all cases: Competition binding of fMLFK with WK(FITC)YMVm, flow cytometry on HEK293F cells
[1] = molecular target: T1, wild-type (WT) and mutant FPR2 (Homo sapiens, UniProt P25090); settings: FPR2 WT; mean ± s.e.m., n=5; SEM
T1 construct: expressed in transfected cells; host or cells: HEK293F
T1 sequence (P25090 1-351): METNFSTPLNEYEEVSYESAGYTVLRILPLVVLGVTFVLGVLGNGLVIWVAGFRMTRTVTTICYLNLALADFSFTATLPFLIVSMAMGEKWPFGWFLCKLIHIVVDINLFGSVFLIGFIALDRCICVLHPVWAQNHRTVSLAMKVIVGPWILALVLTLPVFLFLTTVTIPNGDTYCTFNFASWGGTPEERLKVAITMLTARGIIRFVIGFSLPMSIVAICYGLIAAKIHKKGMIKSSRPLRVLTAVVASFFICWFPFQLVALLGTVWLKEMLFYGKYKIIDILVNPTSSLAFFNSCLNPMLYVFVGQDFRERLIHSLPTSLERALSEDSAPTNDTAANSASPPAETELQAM
Method: (§1) Flag-tagged wild-type and mutant FPR2s were cloned into the pTT5 vector and expressed in HEK293F cells. The cells were harvested, and washed with Hanks’ Balanced Salt Solution (HBSS) buffer supplemented with 0.5% bovine serum albumin and 20 mM HEPES, pH 7.4. The cells were then resuspended in the same buffer to the final concentration of 1 × 10^6 cells per ml. The cell-surface expression was measured as mentioned above. […] Mean fluorescent intensity of each well was then read by a FCM (flow cytometry) reader (Millipore). […] For competitive binding of fMLFK, cells were plated in 96-well plates (100,000 cells per well), and incubated with WK(FITC)YMVm at 4 °C for 1 h. The following concentrations of WK(FITC)YMVm were used: 10 nM (wild type, L81^2.60F, E89G, and V105^3.32A), 30 nM (D281^7.32G), 40 nM (H102^3.29F, V160^4.60A, L268^ECL3A, N285^7.36A, and F292^7.43A), and 100 nM (L164^4.64A and T177A). Then increasing concentrations of fMLFK (100 nM–1 mM) were added, and incubated for another 1 h on ice. Mean fluorescent intensity values were measured by flow cytometry. Data were analyzed using Prism 7.0.

[2] = molecular target: T2, wild-type (WT) and mutant FPR2 (Homo sapiens, UniProt P25090, L81F); settings: FPR2 L81F; mean ± s.e.m., n=4; SEM
T2 construct: expressed in transfected cells; host or cells: HEK293F
T2 sequence (P25090 1-351 L81F): T1 sequence (P25090 1-351) with L81F
Method: as §1

[3] = molecular target: T3, wild-type (WT) and mutant FPR2 (Homo sapiens, UniProt P25090, T177A); settings: FPR2 T177A; mean ± s.e.m., n=4; SEM
T3 construct: expressed in transfected cells; host or cells: HEK293F
T3 sequence (P25090 1-351 T177A): T1 sequence (P25090 1-351) with T177A
Method: as §1

[4] = molecular target: T4, wild-type (WT) and mutant FPR2 (Homo sapiens, UniProt P25090, E89G); settings: FPR2 E89G; mean ± s.e.m., n=3; SEM
T4 construct: expressed in transfected cells; host or cells: HEK293F
T4 sequence (P25090 1-351 E89G): T1 sequence (P25090 1-351) with E89G
Method: as §1

[5] = molecular target: T5, wild-type (WT) and mutant FPR2 (Homo sapiens, UniProt P25090, V105A); settings: FPR2 V105A; mean ± s.e.m., n=3; SEM
T5 construct: expressed in transfected cells; host or cells: HEK293F
T5 sequence (P25090 1-351 V105A): T1 sequence (P25090 1-351) with V105A
Method: as §1

CSCC[C@H](NC=O)C(=O)N[C@@H](CC(C)C)C(=O)N[C@@H](Cc1ccccc1)C(=O)N[C@@H](CCCCN)C(=O)O [fMLFK] (For-MLFK-OH)
pKi, competition binding [1]: 4.08 ± 0.19 | pKi, competition binding [2]: 3.97 ± 0.27 | pKi, competition binding [3]: 3.97 ± 0.21 | pKi, competition binding [4]: 3.49 ± 0.31 | pKi, competition binding [5]: 4.56 ± 0.21
